Experiment: Acute toxicity (LD50)
Settings: in vivo

Substance: ε-polylysine hydrochloride
- acute toxicity in LD50: ≥ 5000 mg/kg

From patent publication US20040062848A1, “Lapactic agent” (priority 2002, published 2004)
